Laboratory results: ChEMBL document CHEMBL1201862, “PubChem BioAssay data set” (2004)
Activity calls are given as the source filed them.

How the values were obtained:
BJ = test: growth inhibition of engineered Ras-driven BJ cells – cell-based, alamar blue fluorescence, cherrypicked samples, dose response (AID 2631); format: functional; details: Homo sapiens;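 also: confirmatory dose-response assay in RAS-dependent BJ fibroblasts engineered with TERT, LT and ST, with cytotoxicity read by fluorescence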
[1] = target: T1, High affinity choline transporter 1 (Homo sapiens, UniProt Q9GZV3); test: human choline transporter blockers, potency – cell-based, 5-point CRC, membrane potential dye, dose response (AID 504840); format: functional
T1 sequence (Q9GZV3 whole entry): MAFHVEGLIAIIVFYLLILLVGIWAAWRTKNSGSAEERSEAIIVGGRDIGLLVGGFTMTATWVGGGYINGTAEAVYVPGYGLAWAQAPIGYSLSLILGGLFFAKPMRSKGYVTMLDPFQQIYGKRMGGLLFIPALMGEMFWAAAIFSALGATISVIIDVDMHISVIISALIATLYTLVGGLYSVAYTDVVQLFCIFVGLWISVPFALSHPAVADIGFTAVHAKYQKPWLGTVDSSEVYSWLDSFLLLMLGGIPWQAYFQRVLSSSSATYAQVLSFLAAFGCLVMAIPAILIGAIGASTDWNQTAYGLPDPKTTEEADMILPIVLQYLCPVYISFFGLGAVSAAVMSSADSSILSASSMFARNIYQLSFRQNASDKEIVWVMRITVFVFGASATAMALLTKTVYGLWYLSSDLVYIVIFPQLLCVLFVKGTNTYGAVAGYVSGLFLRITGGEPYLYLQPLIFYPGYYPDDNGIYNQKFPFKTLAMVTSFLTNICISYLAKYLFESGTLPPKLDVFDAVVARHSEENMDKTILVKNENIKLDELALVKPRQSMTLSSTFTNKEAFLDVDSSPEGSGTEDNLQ

[2] = target: T1, High affinity choline transporter 1; test: human choline transporter blockers, potency – cell-based, 10-point CRC, membrane potential dye, dose response (AID 588401); format: functional;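 also: membrane potential dye fluorescence of choline-evoked depolarization via CHT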
[3] = target: T1, High affinity choline transporter 1; test: human choline transporter radiolabel uptake blockers – cell-based, 3H-choline uptake, CHT LV-AA trafficking mutant, CRC, dose response (AID 602208); format: functional
[4] = target: Beta-2 adrenergic receptor (Homo sapiens, UniProt P07550); test: ADRB2 activation measured by internalization – cell-based, FAP fluorogen, flow cytometry, cherry pick 1, dose response (AID 588763); format: functional
Chain of Beta-2 adrenergic receptor (P07550 whole entry): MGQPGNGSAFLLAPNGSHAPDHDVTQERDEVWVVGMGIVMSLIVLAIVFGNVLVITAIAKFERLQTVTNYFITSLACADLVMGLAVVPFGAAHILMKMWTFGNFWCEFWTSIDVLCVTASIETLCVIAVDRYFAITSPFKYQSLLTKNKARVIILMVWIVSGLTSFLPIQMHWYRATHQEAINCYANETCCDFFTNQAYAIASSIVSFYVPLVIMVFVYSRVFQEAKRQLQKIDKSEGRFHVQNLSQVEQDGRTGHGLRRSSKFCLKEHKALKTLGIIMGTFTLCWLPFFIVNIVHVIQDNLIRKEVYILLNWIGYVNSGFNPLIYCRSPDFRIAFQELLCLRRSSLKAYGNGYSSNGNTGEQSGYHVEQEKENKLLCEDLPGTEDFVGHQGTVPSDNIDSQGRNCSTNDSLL

Phospholipase D1 = Phospholipase D1 (Homo sapiens, UniProt Q13393); test: cellular phospholipase D1 inhibition IC50 – cell-based, dose response (AID 602151); format: functional;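 also: cellular PLD1 assay in Calu-1 cells stimulated with PMA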
Chain of Phospholipase D1 (Q13393 whole entry): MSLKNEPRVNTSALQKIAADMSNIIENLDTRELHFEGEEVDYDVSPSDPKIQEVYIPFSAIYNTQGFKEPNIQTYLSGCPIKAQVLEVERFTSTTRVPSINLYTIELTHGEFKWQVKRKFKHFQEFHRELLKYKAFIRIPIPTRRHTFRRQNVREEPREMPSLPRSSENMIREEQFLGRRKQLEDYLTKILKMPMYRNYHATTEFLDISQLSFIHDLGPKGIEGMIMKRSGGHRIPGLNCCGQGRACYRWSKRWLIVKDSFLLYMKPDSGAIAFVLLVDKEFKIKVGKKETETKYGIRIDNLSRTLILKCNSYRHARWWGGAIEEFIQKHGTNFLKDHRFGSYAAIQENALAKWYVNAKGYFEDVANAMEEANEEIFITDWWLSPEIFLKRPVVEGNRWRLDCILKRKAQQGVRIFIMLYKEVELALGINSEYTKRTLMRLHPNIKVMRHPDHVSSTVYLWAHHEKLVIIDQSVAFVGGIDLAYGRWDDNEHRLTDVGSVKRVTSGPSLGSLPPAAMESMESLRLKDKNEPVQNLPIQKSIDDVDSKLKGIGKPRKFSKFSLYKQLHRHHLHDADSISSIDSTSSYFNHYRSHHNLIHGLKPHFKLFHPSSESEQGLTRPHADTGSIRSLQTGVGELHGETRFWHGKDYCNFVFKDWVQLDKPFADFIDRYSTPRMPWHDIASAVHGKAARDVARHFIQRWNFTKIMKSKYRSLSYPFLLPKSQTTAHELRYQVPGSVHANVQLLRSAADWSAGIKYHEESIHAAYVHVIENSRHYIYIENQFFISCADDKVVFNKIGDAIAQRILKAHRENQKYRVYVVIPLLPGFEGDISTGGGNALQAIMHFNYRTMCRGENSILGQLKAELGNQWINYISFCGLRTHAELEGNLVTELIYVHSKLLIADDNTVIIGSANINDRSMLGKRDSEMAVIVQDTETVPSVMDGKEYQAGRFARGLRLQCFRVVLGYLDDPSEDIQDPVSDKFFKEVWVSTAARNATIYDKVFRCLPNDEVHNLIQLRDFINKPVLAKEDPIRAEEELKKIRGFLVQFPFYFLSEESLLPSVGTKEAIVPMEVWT

Phospholipase D2 = Phospholipase D2 (Homo sapiens, UniProt O14939); test: cellular phospholipase D2 inhibition IC50 – cell-based, dose response (AID 602147); format: functional;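 also: cellular assay in HEK293 cells overexpressing GFP-tagged PLD2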
Chain of Phospholipase D2 (O14939 whole entry): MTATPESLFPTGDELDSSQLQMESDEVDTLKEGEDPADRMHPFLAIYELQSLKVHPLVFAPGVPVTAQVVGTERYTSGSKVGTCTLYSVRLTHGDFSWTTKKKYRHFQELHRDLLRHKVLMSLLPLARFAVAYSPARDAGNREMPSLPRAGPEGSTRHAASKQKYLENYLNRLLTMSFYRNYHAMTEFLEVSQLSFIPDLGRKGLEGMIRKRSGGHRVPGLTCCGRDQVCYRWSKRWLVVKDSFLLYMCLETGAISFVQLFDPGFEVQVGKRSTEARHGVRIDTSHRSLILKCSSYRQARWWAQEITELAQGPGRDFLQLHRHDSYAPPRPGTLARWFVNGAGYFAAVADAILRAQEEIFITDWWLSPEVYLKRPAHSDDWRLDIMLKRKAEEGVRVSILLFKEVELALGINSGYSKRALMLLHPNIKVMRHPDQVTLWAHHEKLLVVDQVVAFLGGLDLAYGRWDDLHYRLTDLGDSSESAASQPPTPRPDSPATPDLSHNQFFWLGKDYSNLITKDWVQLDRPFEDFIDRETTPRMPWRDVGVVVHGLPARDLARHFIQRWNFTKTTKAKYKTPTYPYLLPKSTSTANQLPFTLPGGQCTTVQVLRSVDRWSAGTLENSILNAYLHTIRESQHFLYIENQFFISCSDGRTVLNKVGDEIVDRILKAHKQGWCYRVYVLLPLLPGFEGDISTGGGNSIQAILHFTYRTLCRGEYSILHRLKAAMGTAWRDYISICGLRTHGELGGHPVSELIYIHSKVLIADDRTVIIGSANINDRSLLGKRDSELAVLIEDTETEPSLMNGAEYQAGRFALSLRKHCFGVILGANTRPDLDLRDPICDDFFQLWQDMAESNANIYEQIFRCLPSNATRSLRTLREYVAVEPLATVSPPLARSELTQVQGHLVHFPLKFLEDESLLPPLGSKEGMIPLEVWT

Melanocortin receptor 4 = Melanocortin receptor 4 (Homo sapiens, UniProt P32245); test: inhibitors of MC4R cAMP signaling – cell-based, TR-FRET, biased antagonists, dose response (AID 602298); format: functional;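 also: antagonist potency against agonist-stimulated cAMP production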
Chain of Melanocortin receptor 4 (P32245 whole entry): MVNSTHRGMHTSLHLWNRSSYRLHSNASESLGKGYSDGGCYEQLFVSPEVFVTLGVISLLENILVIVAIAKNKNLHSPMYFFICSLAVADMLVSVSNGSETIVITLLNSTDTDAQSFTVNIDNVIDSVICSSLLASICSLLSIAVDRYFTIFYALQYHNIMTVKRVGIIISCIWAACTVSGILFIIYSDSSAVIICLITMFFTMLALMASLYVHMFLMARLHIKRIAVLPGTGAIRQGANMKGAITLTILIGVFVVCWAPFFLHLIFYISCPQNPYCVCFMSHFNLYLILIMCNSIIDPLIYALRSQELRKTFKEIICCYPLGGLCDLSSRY

[5] = cAMP pathway inhibition in counterscreen cell line – TR-FRET cAMP detection, counter-screen for MC4R biased antagonist project, dose response (AID 602305); format: functional, cell-based;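 also: U2OS cells stimulated with forskolin near its EC80 as the cAMP inducer; potency is for inhibition of forskolin-stimulated cAMP signaling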
[6] = target: T2, Calpain-2 catalytic subunit (Sus scrofa, UniProt P43367); test: m-calpain protease blockers, concentration series – biochemical, fluorogenic peptide substrate, dose response (AID 1420); format: functional
T2 sequence (P43367 whole entry): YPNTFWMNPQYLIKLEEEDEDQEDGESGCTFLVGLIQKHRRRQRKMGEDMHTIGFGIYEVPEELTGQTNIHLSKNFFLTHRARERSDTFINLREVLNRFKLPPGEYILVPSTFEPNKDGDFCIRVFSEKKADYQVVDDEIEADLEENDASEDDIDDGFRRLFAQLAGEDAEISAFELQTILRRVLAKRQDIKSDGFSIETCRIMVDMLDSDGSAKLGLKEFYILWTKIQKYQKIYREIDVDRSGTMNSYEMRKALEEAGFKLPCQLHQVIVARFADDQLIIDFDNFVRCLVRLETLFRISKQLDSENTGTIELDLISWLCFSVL

[7] = target: T3, Microphthalmia-associated transcription factor (Homo sapiens, UniProt O75030); test: reducers of TRPM1 reporter luminescence, concentration series – cell-based, SK-MEL-5, cherry-picked, set 3, MITF inhibitor project, dose response (AID 493073); format: functional;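 also: SK-MEL-5 melanoma cells with luciferase driven by the MITF target TRPM1 promoter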
T3 sequence (O75030 whole entry): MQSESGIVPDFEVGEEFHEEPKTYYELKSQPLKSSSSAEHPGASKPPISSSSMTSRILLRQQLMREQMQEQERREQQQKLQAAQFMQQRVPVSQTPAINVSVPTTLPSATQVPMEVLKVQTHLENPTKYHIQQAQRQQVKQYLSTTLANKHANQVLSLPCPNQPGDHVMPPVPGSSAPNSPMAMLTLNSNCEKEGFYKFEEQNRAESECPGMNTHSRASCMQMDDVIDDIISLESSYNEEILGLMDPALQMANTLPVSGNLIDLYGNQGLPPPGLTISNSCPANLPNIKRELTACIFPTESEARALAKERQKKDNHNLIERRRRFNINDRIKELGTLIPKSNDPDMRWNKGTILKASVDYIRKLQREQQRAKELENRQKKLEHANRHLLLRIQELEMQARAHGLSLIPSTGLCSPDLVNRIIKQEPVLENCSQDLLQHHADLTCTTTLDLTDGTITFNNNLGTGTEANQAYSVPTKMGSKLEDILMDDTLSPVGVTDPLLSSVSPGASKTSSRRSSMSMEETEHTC

[8] = target: T4, Replicative DNA helicase DnaB (Mycobacterium tuberculosis, UniProt P9WMR3); test: DnaB intein splicing inhibitors, dose response, biochemical, cell-free fluorescence (AID 449749); format: functional
T4 sequence (P9WMR3 whole entry): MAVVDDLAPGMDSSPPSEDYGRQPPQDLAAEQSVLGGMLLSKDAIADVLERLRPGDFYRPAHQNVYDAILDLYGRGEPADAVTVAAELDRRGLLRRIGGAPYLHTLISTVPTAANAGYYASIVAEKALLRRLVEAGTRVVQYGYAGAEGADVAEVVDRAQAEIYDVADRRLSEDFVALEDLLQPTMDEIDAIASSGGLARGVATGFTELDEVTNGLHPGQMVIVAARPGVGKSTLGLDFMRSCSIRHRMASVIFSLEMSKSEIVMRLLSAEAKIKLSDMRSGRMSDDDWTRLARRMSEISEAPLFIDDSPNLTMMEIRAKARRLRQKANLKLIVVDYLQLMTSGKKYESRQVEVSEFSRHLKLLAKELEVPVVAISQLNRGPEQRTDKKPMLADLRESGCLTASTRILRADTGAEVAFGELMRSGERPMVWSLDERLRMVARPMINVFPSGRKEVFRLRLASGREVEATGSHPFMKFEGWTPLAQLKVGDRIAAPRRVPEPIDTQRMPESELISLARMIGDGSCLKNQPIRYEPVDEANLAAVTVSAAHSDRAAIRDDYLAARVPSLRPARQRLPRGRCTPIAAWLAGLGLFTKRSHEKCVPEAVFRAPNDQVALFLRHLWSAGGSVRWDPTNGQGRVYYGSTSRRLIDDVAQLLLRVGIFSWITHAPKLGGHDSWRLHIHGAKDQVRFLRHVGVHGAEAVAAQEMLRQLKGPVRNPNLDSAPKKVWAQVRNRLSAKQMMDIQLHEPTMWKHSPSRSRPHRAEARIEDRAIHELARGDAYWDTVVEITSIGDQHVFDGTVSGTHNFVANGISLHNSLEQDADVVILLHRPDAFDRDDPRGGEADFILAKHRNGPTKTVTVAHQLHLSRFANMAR

Protein RecA = target: T5, Protein RecA (Mycobacterium tuberculosis, UniProt P9WHJ3); test: Fluorescence Cell-Free Homogeneous Dose Retest to Identify Inhibitors of RecA-Intein Splicing Activity. [Related pubchem assays (depositor defined):AID2097, AID2223, AID489010, AID492950]; format: functional
T5 sequence (P9WHJ3 whole entry): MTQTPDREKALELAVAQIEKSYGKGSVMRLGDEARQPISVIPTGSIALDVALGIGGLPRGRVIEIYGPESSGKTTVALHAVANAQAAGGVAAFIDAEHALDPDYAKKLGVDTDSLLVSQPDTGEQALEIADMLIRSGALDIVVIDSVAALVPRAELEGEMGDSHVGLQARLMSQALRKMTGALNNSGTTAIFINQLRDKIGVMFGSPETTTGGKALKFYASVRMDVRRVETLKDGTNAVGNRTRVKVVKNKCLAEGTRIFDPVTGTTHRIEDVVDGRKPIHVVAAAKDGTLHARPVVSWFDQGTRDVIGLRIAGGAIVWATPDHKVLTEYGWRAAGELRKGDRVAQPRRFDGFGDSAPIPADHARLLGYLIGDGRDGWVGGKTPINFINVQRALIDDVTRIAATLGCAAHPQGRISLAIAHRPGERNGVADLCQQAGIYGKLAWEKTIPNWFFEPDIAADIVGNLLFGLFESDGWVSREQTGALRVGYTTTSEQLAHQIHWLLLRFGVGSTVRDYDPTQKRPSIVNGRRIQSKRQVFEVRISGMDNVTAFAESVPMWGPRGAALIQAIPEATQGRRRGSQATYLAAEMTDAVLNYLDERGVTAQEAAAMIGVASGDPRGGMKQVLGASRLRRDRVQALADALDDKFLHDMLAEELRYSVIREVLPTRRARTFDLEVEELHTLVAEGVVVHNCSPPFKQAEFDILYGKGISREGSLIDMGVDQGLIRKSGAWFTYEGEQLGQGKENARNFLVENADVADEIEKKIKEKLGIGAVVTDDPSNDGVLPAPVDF

[9] = target: Mitochondrial peptide methionine sulfoxide reductase (Bos taurus, UniProt P54149); test: Absorbance-based biochemical high throughput dose response assay for activators of Methionine sulfoxide reductase A (MsrA).; format: functional
Chain of Mitochondrial peptide methionine sulfoxide reductase (P54149 whole entry): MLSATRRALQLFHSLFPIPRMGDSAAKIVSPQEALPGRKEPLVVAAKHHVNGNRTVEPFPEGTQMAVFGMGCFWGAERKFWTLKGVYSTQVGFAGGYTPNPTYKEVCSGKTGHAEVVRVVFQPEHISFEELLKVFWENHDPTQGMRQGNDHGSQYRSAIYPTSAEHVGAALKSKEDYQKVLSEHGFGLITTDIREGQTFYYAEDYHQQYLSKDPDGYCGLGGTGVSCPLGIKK

C=C1C(=O)O[C@@H]2C[C@@H](C)[C@H]3C=CC(=O)[C@]3(O)C[C@@H]12
EC50 (BJ): 3.09 µM (active)

COc1ccc(C(=O)NC(C)Cc2cnccn2)cc1OC1CCN(C(C)C)CC1 (stereo unspecified)
IC50 [1]: 9.9 µM (active)
IC50 [2]: 4.47 µM (active)
IC50 [3]: 7.51 µM (active)

CC1(C)Cc2c(c(N3CCOCC3)nc3sc4c(NCCN)ncnc4c23)CO1
EC50 [4]: 0.158 µM (active)

CC(C)[C@@H](CN1CCC(n2c(=O)[nH]c3ccccc32)CC1)NC(=O)c1ccc2ccccc2c1
IC50 (Phospholipase D1): 5.6 µM (active)
IC50 (Phospholipase D2): 20 µM (active)

CSCCC(NC(=O)c1cccc(C)c1)C(=O)OCN1C(=O)c2ccccc2C1=O (stereo unspecified)
IC50 (Melanocortin receptor 4): > 21.5 µM (inactive)
IC50 [5]: > 64.6 µM (inactive)

Cc1ccc(C(=O)N[C@@H](C)CN2CCC(n3c(=O)[nH]c4ccc(F)cc43)CC2)cc1
IC50 (Phospholipase D1): 0.008 µM (active)
IC50 (Phospholipase D2): 0.18 µM (active)

CCNC1=C(Cl)C(=O)c2ccccc2C1=O
IC50 [6]: > 50 µM (not active)
AC50 [7]: 3.84 µM (active)
AC50 [8]: 6.98 µM (active)
EC50 (Protein RecA): 20 µM (active)
EC50 [9]: > 104 µM (inactive)
